Source: ChEMBL document CHEMBL1146684, “An electrochemical device for the assay of the interaction between a dioxin receptor and its various ligands” (Bioorg Med Chem Lett, 2004)

Target: T1, Aryl hydrocarbon receptor (Homo sapiens, UniProt P35869)
T1 sequence (P35869 whole entry): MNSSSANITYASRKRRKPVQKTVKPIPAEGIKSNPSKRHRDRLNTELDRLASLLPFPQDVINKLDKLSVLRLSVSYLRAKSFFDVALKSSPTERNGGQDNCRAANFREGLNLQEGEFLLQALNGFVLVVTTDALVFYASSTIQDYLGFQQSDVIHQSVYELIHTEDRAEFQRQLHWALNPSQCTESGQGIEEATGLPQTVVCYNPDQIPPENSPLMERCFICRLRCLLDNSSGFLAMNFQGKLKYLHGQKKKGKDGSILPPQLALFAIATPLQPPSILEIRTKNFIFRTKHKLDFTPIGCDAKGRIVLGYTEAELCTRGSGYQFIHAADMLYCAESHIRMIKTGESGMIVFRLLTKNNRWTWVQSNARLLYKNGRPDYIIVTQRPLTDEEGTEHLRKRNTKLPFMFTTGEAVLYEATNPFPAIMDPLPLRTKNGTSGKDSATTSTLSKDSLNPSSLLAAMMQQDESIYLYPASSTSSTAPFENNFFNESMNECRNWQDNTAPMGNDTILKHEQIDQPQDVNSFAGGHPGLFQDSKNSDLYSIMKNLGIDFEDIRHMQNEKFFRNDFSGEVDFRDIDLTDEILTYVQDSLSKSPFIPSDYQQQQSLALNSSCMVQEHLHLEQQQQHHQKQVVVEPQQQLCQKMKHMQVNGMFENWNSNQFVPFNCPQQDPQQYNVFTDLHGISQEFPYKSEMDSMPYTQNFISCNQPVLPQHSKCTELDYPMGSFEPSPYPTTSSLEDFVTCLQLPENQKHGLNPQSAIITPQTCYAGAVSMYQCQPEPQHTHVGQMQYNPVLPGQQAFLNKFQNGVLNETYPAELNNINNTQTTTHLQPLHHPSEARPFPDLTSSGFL
Assay: Compound tested for its binding to human Orphan receptor (AhR); Active; call rule not given here

Compound | Activity
c1ccc2c(c1)cc1ccc3cccc4ccc2c1c34 [BENZO[DEF]CHRYSENE] | Active
Clc1cc2c(cc1Cl)Oc1cc(Cl)c(Cl)cc1O2 [2,3,7,8-TETRACHLORODIBENZO-P-DIOXIN] | Active
O=c1cc(-c2ccccc2)oc2ccc3ccccc3c12 [BETA-NAPHTHOFLAVONE] | Active
